These results are taken from patent US20090022694A1, “SIRT1 INHIBITION” (priority 2005, published 2009).

Molecules are shown by their SMILES.

The target of this experiment is T1, SirT1 (Homo sapiens, UniProt Q96EB6).
T1 sequence (Q96EB6 1-747): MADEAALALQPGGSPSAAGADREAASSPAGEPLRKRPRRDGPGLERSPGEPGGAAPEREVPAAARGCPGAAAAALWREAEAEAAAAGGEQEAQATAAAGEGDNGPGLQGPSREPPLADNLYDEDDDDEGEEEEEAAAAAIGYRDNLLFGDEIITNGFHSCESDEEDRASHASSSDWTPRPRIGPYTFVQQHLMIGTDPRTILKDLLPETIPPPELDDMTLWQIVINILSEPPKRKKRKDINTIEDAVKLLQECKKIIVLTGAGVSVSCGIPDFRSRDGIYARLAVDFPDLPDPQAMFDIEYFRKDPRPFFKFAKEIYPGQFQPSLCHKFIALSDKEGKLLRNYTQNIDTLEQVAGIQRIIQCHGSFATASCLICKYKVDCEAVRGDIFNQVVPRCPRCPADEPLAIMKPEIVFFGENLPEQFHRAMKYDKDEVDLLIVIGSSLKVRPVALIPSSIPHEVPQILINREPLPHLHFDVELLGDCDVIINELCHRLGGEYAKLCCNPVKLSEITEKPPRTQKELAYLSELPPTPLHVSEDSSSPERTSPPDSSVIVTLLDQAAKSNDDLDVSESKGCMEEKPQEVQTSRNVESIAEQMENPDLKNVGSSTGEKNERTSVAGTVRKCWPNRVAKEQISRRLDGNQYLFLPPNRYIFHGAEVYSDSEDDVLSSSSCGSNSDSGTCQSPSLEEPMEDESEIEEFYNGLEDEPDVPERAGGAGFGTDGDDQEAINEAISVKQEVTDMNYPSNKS
The experiment in a line: SirT1 enzymatic assay, p53-382 Fluor-de-Lys (FdL). To be noted: for IC50: Table 1, exemplary compounds. It is filed as biochemical. An excerpt: The ability of a compound to inhibit SIRT1 can be evaluated in many ways. In some embodiments, interaction with, e.g., binding of, SIRT1 can be assayed in vitro. The reaction mixture can include a SIRT1 co-factor such as NAD and/or a NAD analog. In other embodiments, the ability of the compound to inhibit an enzymatic function, e.g., deacetylase activity of SIRT1, can be assayed in vitro. Assays can include determining the IC50 of the compound.
An exemplary assay method includes a multi-well format of the SirT1 enzymatic assay that is based on the commercial “Fluor-de-Lys” assay principle by Biomol, which is fluorogenic (www.biomol.com/store/Product_Data_PDFs/ak500.pdf). In this assay, deacetylation of the s-amino function of a lysyl residue is coupled to a fluorogenic development step that is dependent on the unblocked ε-amino functionality and generates fluorescent aminomethylcoumarin. Fluorescence can be read on a commercial […]. Standard enzymological analyses can be used to determine Ki.

As for `NC(=O)C1CCCc2c1[nH]c1ccc(Cl)cc21` (single isomer, unassigned) [isomer of compound 4 having a negative optical rotation, 6-Chloro-2,3,4,9-tetrahydro-1H-carbazole-1-carboxylic acid amide], the “activity against the SirT1 enzyme compared with the enantiomer” value (isomer with negative optical rotation vs enantiomer with positive optical rotation) is listed as “greater activity against the SirT1 enzyme”. On to `NC(=O)C1NCCc2c1[nH]c1ccc(Cl)cc21` (stereo not shown) [Compound 56, 6-chloro-2,3,4,9-tetrahydro-1H-pyrido[3,4-b]indole-1-carboxamide], for which the IC50 was > 10 µM. On to `O=C(O)C1CCCc2c1[nH]c1ccc(O)cc21` (stereo not shown) [Compound 54, 6-hydroxy-2,3,4,9-tetrahydro-1H-carbazole-1-carboxylic acid], for which the IC50 is > 10 µM. For the compound `CC(=O)N1CCc2c([nH]c3ccc(Cl)cc23)C1C(N)=O` (stereo not shown) [Compound 58, 2-acetyl-6-chloro-2,3,4,9-tetrahydro-1H-pyrido[3,4-b]indole-1-carboxamide], the IC50 was > 10 µM.
